Measured values taken from patent US8802663B2, “Pyrazole oxadiazole derivatives as S1P1 agonists” (Merck Serono SA, priority 2009, dated 2014).
Counter-ions that a name gives are not always drawn.

Experiments:
S1P3 = S1P3 (Homo sapiens (Human), UniProt Q99500); assay: 35S-GTPγS binding, membranes from CHO cells expressing S1P3; assay type: biochemical; details: CHO cell membranes
Protocol: (§1) Receptor binding assay: Membranes were prepared from CHO cells expressing S1P1 or S1P3 for use in ligand and […] binding studies. Cells were suspended in 50 mM TRIS, pH 7.4, 2 mM EDTA, 250 mM Sucrose (buffer A) and 1× Complete protease inhibitor cocktail (Roche), and disrupted at 4° C. by N2 decompression using a cell disruption bomb (Parr Instrument). Following centrifugation at 1000 RPM for 10 min at 4° C., the supernatant was suspended in buffer A and centrifuged again at 19000 RPM for 60 min at 4° C. The pellet was then suspended in 10 mM HEPES, pH 7.4, 1 mM EDTA, 250 mM Sucrose (Buffer B), and 1× Complete EDTA-free protease inhibitor cocktail and homogenized using a potter. Membranes were flash frozen in liquid N2 and stored at −80° C. [33P]sphingosine 1-phosphate (3000 Ci/mmol; American Radiolabeled Chemicals, Inc.) was added to test compounds in DMSO. Membranes and WGA SPA beads (GE Healthcare) were added to give a final volume of 100 μl in 96-well plates with assay concentrations of 25 pM or 10 pM [33P]sphingosine 1-phosphate (respectively for S1P1 or S1P3), 50 mM HEPES, pH 7.5, 5 mM MgCl2, 100 mM NaCl, 0.4% fatty acid-free BSA, 1-5 μg/well of proteins and 100 μg/well of WGA SPA beads. Binding was performed for 60 min at RT on a shaker and bound radioactivity was measured on a PerkinElmer 1450 MicroBeta counter. Specific binding was calculated by subtracting remaining radioactivity in the presence of 1000-fold excess of unlabeled SIP. Binding data were analyzed using the GraphPad Prism program.
Measurements of 35S-GTPγS Binding: Membranes (1 to 10 μg protein) prepared as described above, were incubated in 96-well Scintiplates (PerkinElmer) with test compounds diluted in DMSO, in 180 μl of 20 mM HEPES, pH 7.4, 10 mM MgCl2, 2 μg/well Saponin, 0.2% fatty acid free BSA (Assay buffer), 140 mM NaCl and 1.7 μM GDP. The assay was initiated with the addition of 20 μl of 1.5 nM [35S]-GTPγS (1100 Ci/mmol; GE Healthcare) in assay buffer. After 60 min incubation at 30° C. on a shaker, plates were centrifuged for 10 min at 2000 RPM. Supernatant was discarded and membrane bound radioactivity was measured on a PerkinElmer 1450 MicroBeta counter. Triplicate samples were averaged and expressed as % response relative to S1P activation in absence of compound (n=2).

S1P1 [1] = target: T1, S1P1 (Homo sapiens (Human), UniProt P21453); assay: 35S-GTPγS binding, membranes from CHO cells expressing S1P1; assay type: biochemical; details: CHO cell membranes
S1P1 [2] = target: T1, S1P1; assay: Receptor binding assay, [33P]sphingosine 1-phosphate, membranes from CHO cells expressing S1P1; details: CHO cell membranes, 25 pM [33P]sphingosine 1-phosphate
Protocol: as §1

S1P3, sequence (Q99500 whole entry, species assumed): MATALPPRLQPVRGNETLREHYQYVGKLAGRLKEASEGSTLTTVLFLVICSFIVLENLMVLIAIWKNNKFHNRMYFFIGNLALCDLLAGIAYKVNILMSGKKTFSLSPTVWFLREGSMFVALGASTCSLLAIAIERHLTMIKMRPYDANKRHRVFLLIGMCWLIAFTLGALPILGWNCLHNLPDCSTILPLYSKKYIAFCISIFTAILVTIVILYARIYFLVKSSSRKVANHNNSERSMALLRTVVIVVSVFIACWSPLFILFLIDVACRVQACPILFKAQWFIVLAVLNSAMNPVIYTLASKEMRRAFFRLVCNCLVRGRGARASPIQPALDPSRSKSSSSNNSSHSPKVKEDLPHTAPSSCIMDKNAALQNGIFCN
T1 sequence (P21453 whole entry, species assumed): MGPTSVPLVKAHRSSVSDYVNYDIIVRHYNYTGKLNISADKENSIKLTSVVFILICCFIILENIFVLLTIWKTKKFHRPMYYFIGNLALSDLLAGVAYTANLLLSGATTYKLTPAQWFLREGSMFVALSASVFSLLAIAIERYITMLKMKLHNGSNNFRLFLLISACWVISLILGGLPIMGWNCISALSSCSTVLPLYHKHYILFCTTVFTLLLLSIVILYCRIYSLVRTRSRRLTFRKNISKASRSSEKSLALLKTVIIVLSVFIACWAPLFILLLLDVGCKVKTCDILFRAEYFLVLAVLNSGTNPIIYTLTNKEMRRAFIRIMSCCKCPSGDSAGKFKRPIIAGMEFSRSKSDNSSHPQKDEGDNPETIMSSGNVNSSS

| SMILES | EC50 (S1P3) | EC50 (S1P1 [1]) | Ki (S1P1 [2]) |
| --- | --- | --- | --- |
| COCc1c(-c2nc(-c3cc(F)ccc3F)no2)cnn1-c1ccccc1 [Example 1, 3-(2,5-difluorophenyl)-5-(5-(methoxymethyl)-1-phenyl-1H-pyrazol-4-yl)-1,2,4-oxadiazole] | > 20000 nM | 304 nM | 272 nM |
| CS(=O)(=O)c1cccc(-c2noc(-c3cnn(-c4ccccc4F)c3-c3ccncc3)n2)c1 [Example 9, 4-(1-(2-fluorophenyl)-4-{3-[3-(methylsulfonyl)phenyl]-1,2,4-oxadiazol-5-yl}-1H-pyrazol-5-yl)pyridine] | > 20000 nM | 28 nM | 5 nM |
| Fc1ccc(F)c(-c2noc(-c3cnn(C4CCCCC4)c3-c3ccccc3)n2)c1 [Example 11] | 142 nM | 6 nM | 9 nM |
| c1cc(-c2c(-c3nc(-c4ccc5[nH]ncc5c4)no3)cnn2C2CCCCC2)ccn1 [Example 38, 5-[5-(1-cyclohexyl-5-pyridin-4-yl-1H-pyrazol-4-yl)-1,2,4-oxadiazol-3-yl]-1H-indazole] | 474 nM | 3 nM | 68 nM |
| O=C(O)C1CN(Cc2ccc(-c3noc(-c4cnn(CC5CC5)c4-c4ccncc4)n3)cc2)C1 [Example 101, 1-(4-(5-(1-(cyclopropylmethyl)-5-(pyridin-4-yl)-1H-pyrazol-4-yl)-1,2,4-oxadiazol-3-yl)benzyl)azetidine 3-carboxylic acid, formate] | 1620 nM | 12 nM | 1.8 nM |

Next, values leading:

| EC50 (S1P3) | EC50 (S1P1 [1]) | Ki (S1P1 [2]) | SMILES |
| --- | --- | --- | --- |
| 1470 nM | 9.5 nM | 2.3 nM | CC(C)Cn1ncc(-c2nc(-c3ccc(CN4CC(C(=O)O)C4)cc3)no2)c1-c1ccncc1 [Example 79, 1-(4-(5-(1-isobutyl-5-(pyridin-4-yl)-1H-pyrazol-4-yl)-1,2,4-oxadiazol-3-yl)benzyl)azetidine-3-carboxylic acid] |
| 147 nM | 8.5 nM | – | c1cc(-c2c(-c3nc(-c4ccc(Cn5cncn5)cc4)no3)cnn2C2CCCCC2)ccn1 [Example 91, 3-(4-((1H-1,2,4-triazol-1-yl)methyl)phenyl)-5-(1-cyclohexyl-5-(pyridin-4-yl)-1H-pyrazol-4-yl)-1,2,4-oxadiazole] |
| 2250 nM | 31 nM | 6.5 nM | CC(C)Cn1ncc(-c2nc(-c3ccc(CN4CC(C(=O)O)C4)cc3)no2)c1C1CCOCC1 [Example 96, 1-(4-(5-(1-isobutyl-5-(tetrahydro-2H-pyran-4-yl)-1H-pyrazol-4-yl)-1,2,4-oxadiazol-3-yl)benzyl)azetidine-3-carboxylic acid] |
| 138 nM | 1.4 nM | 0.7 nM | O=C(O)C1CN(Cc2ccc(-c3noc(-c4cnn(C5CCCCC5)c4C4CCOCC4)n3)cc2)C1 [Example 97, 1-(4-(5-(1-cyclohexyl-5-(tetrahydro-2H-pyran-4-yl)-1H-pyrazol-4-yl)-1,2,4-oxadiazol-3-yl)benzyl)azetidine-3-carboxylic acid] |
| 214 nM | 2.1 nM | 0.8 nM | O=C(O)CCNCc1ccc(-c2noc(-c3cnn(C4CCCCC4)c3C3CCOCC3)n2)cc1 [Example 102, 3-(4-(5-(1-cyclohexyl-5-(tetrahydro-2H-pyran-4-yl)-1H-pyrazol-4-yl)-1,2,4-oxadiazol-3-yl)benzylamino)propanoic acid] |
| 622 nM | 11 nM | 2 nM | OCc1ccc(-c2noc(-c3cnn(C4CCCCC4)c3C3CCCO3)n2)cc1 (centres unmarked) [Example 117, (4-(5-(1-cyclohexyl-5-(tetrahydrofuran-2-yl)-1H-pyrazol-4-yl)-1,2,4-oxadiazol-3-yl)phenyl)methanol] |
| 489 nM | 0.5 nM | 0.1 nM | COCCc1c(-c2nc(-c3ccc(CN4CC(C(=O)O)C4)cc3)no2)cnn1C1CCCCC1 [Example 120, 1-(4-(5-(1-cyclohexyl-5-(2-methoxyethyl)-1H-pyrazol-4-yl)-1,2,4-oxadiazol-3-yl)benzyl)azetidine-3-carboxylic acid] |
| 427 nM | 1.9 nM | 0.6 nM | O=C(O)C1CCN(Cc2ccc(-c3noc(-c4cnn(C5CCCCC5)c4C4CCCO4)n3)cc2)CC1 (centres unmarked) [Example 125, 1-(4-(5-(1-cyclohexyl-5-(tetrahydrofuran-2-yl)-1H-pyrazol-4-yl)-1,2,4-oxadiazol-3-yl)benzyl)piperidine-4-carboxylic acid] |
